Data: patent US20130310256A1, “HERBICIDAL COMPOSITIONS COMPRISING 4-AMINO-3-CHLORO-5-FLUORO-6-(4-CHLORO-2-FLUORO-3-METHOXYPHENYL) PYRIDINE-2-CARBOXYLIC ACID OR A DERIVATIVE THEREOF AND VLCFA AND LIPID SYNTHESIS INHIBITING HERBICIDES” (DOW AGROSCIENCES LLC, priority 2008, published 2013)

How the values were obtained:
[1] = tested on: BRAPP; assay: Example I: postemergence foliar-applied weed control, direct seeded rice weeds, greenhouse; assay type: in vivo; conditions: foliar
Description: (§1) Seeds or nutlets of the desired test plant species were planted in a soil matrix prepared by mixing a loam or sandy loam soil (e.g., 28.6 percent silt, 18.8 percent clay, and 52.6 percent sand, with a pH of about 5.8 and an organic matter content of about 1.8 percent) and calcareous grit in an 80 to 20 ratio. The soil matrix was contained in plastic pots with a volume of 1 quart and a surface area of 83.6 square centimeters (cm^2). When required to ensure good germination and healthy plants, a fungicide treatment and/or other chemical or physical treatment was applied. The plants were grown for 8-22 days in a greenhouse with an approximate 14 hr photoperiod which was maintained at about 29° C. during the day and 26° C. during the night. Nutrients (Peters Excel® 15-5-15 5-Ca 2-Mg and iron chelate) were applied in the irrigation solution as needed and water was added on a regular basis. Supplemental lighting was provided with overhead metal halide 1000-Watt lamps as necessary. The plants were employed for testing when they reached the first through fourth true leaf stage.
(§2) Treatments consisted of the acid or esters of 4-amino-3-chloro-5-fluoro-6-(4-chloro-2-fluoro-3-methoxy-phenyl)pyridine-2-carboxylic acid (Compound A), each formulated as an SC (suspension concentrate), and various herbicidal components alone and in combination. Forms of compound A were applied on an acid equivalent basis.
(§3) Other herbicidal components were applied on an active ingredient basis and included very long chain fatty acid (VLCFA) synthesis-inhibiting and fatty acid/lipid synthesis-inhibiting herbicides acetochlor (technical grade material), acetochlor+dichlormid formulated as Topnotch®, pretilachlor (technical grade material), butachlor formulated as Butachlor EC, fentrazamide formulated as Fentrazamide EC, thiobencarb formulated as Bolero® 8EC, cafenstrole formulated as Himeadow® WP or Lapost® Flowable, benfuresate formulated as Full Shot®, dimethenamid-P formulated as Outlook®, indanofan (technical grade material), flufenacet formulated as Define® DF, mefenacet (technical grade material), S-metolachlor formulated as Dual® II Magnum, pethoxamid formulated as Successor® 600, and pyroxasulfone (technical grade material).
(§4) Treatment requirements were calculated based upon the rates being tested, the concentration of active ingredient or acid equivalent in the formulation, and a 12 mL application volume at a rate of 187 L/ha.
(§5) For treatments comprised of formulated compounds, measured amounts of compounds were placed individually in 25 mL glass vials and diluted in a volume of 1.25% (v/v) Agri-Dex® crop oil concentrated to obtain 12× stock solutions. […] Application solutions were prepared by adding an appropriate amount of each stock solution (e.g., 1 mL) and diluted to the appropriate final concentrations with the addition of 10 mL of an aqueous mixture of 1.25% (v/v) crop oil concentrate so that the final spray solutions contained 1.25+/−0.05% (v/v) crop oil concentrate.
(§6) For treatments comprised of technical compounds, weighed amounts can be placed individually in 25 mL glass vials and dissolved in a volume of 97:3 v/v acetone/DMSO to obtain 12× stock solutions. […] Application solutions can be prepared by adding an appropriate amount of each stock solution (e.g., 1 mL) and diluted to the appropriate final concentrations with the addition of 10 mL of an aqueous mixture of 1.5% (v/v) crop oil concentrate so that the final spray solutions contain 1.25% (v/v) crop oil concentrate. When technical materials are used, the concentrated stock solutions can be added to the spray solutions so that the final acetone and DMSO concentrations of the application solutions are […], respectively. […]

[2] = tested on: ECHCG; assay: Example I: postemergence foliar-applied weed control, greenhouse; assay type: in vivo, Echinochloa crus-galli (L.) Beauv. (barnyardgrass); conditions: 59 gai/ha; foliar
Description: as §1, §2, §3, §4, §5, §6

[3] = tested on: LEFCH; assay: as above; assay type: in vivo, Leptochloa chinensis (L.) Nees (Chinese sprangletop); conditions: foliar
Description: as §1, §2, §3, §4, §5, §6

[4] = tested on: CYPIR; assay: as above; assay type: in vivo, Cyperus iria L. (rice flatsedge); conditions: foliar
Description: as §1, §2, §3, §4, §5, §6

[5] = tested on: ECHOR; assay: Example II: in-water applied weed control, transplanted paddy rice, greenhouse; assay type: in vivo, Echinochloa oryzoides (Ard.) Fritsch (early watergrass); conditions: Echinochloa oryzoides, 504 h, 21 DAA, read-out: Visual Weed Control ECHOR Obs
Procedure: Weed seeds or nutlets of the desired test plant species were planted in puddled soil (mud) prepared by mixing a shredded, non-sterilized mineral soil (50.5 percent silt, 25.5 percent clay, and 24 percent sand, with a pH of about 7.6 and an organic matter content of about 2.9 percent) and water at a 1:1 volumetric ratio. The prepared mud was dispensed in 365 mL aliquots into 16-ounce (oz.) non-perforated plastic pots with a surface area of 86.59 square centimeters (cm^2) leaving a headspace of 3 centimeters (cm) in each pot. Mud was allowed to dry overnight prior to planting or transplanting. Rice seeds were planted in Sun Gro MetroMix® 306 planting mixture, which typically has a pH of 6.0 to 6.8 and an organic matter content of about 30 percent, in plastic plug trays. Seedlings at the second or third leaf stage of growth were transplanted into 840 mL of mud contained in 32-oz. non-perforated plastic pots with a surface area of 86.59 cm^2 4 days prior to herbicide application. The paddy was created by filling the headspace of the pots with 2.5 to 3 cm of water. When required to ensure good germination and healthy plants, a fungicide treatment and/or other chemical or physical treatment was applied. The plants were grown for 4-22 days in a greenhouse with an approximate 14 hr photoperiod which was maintained at about 29′C during the day and 26° C. during the night. Nutrients were added as Osmocote® (19:6:12, N:P:K+ minor nutrients) at 2 g per 16-oz. pot and 4 g per 32-oz. pot. Water was added on a regular basis to maintain the paddy flood, and supplemental lighting was provided with overhead metal halide 1000-Watt lamps as necessary. The plants were employed for testing when they reached the first through fourth true leaf stage.
as §2, with “(compound A)” for “(Compound A),”, “concentrate)” for “concentrate),”
The herbicidal components were applied on an active ingredient basis and included very long chain fatty acid (VLCFA) synthesis-inhibiting and fatty acid/lipid synthesis-inhibiting herbicides acetochlor (technical grade material), acetochlor+dichlormid formulateded as Topnotch®, pretilachlor (technical grade material), butachlor formulated as Butachlor EC, fentrazamide formulated as Fentrazamide EC, thiobencarb formulated as Bolero® 8EC, cafenstrole formulated as Himeadow® WP or Lapost® Flowable, benfuresate formulated as Full Shot®, anilofos (technical grade material), mefenacet (technical grade material), molinate (technical grade material), and thenylchlor (technical grade material).
Treatment requirements for each compound or herbicidal component were calculated based upon the rates being tested, the concentration of active ingredient or acid equivalent in the formulation, an application volume of 2 mL per component per pot, and an application area of 86.59 cm^2 per pot.
For formulated compounds, a measured amount was placed in an individual 100 or 200 mL glass vial and was dissolved in a volume of 1.25% (v/v) Agri-Dex® crop oil concentrate to obtain application solutions.
For technical grade compounds, a weighed amount was placed in an individual 100 to 200 mL glass vial and was dissolved in a volume of acetone to obtain concentrated stock solutions. […] The concentrated stock solutions obtained were diluted with an equivalent volume of an aqueous mixture containing 2.5% (v/v) crop oil concentrate so that the final application solutions contained 1.25% (v/v) crop oil concentrate.
Applications were made by injecting with a pipetter appropriate amounts of the application solutions, individually and sequentially, into the aqueous layer of the paddy. Control plants were treated in the same manner with the solvent blank. […]

Compound: Cn1nc(C(F)(F)F)c(CS(=O)(=O)C2=NOC(C)(C)C2)c1OC(F)F [Pyroxasulfone, 3-[[[5-(difluoromethoxy)-1-methyl-3-(trifluoromethyl)-1H-pyrazol-4-yl]methyl]sulfonyl]-4,5-dihydro-5,5-dimethylisoxazole]
- Visual Weed Control (%) - 22 DAA BRAPP Obs ([1]; 29.5 gai/ha): 0%
- Visual Weed Control (%) - 22 DAA BRAPP Obs ([1]; 59 gai/ha): 0%
- Visual Weed Control (%) - 22 DAA BRAPP Obs ([1]; 118 gai/ha): 20%
- Visual Weed Control (%) - 22 DAA ECHCG Obs [2]: 70%

Compound: CN(C(=O)COc1nc2ccccc2s1)c1ccccc1 [Mefenacet, 2-(2-benzothiazolyloxy)-N-methyl-N-phenylacetamide]
- Visual Weed Control (%) - 22 DAA BRAPP Obs ([1]; 50 gai/ha): 0%
- Visual Weed Control (%) - 22 DAA BRAPP Obs ([1]; 100 gai/ha): 0%
- Visual Weed Control (%) - 22 DAA BRAPP Obs ([1]; 200 gai/ha): 0%
- Visual Weed Control (%) - 22 DAA LEFCH Obs ([3]; 50 gai/ha): 10%
- Visual Weed Control (%) - 22 DAA LEFCH Obs ([3]; 100 gai/ha): 0%
- Visual Weed Control (%) - 22 DAA CYPIR Obs ([4]; 100 gai/ha): 0%
- Visual Weed Control (%) - 22 DAA CYPIR Obs ([4]; 200 gai/ha): 20%
- pest or weed control at 300 g/ha ([5]; 300 gai/ha): 80%
- pest or weed control at 600 g/ha ([5]; 600 gai/ha): 100%
- pest or weed control at 1200 g/ha ([5]; 1200 gai/ha): 100%

Compound: CCSC(=O)N1CCCCCC1 [Molinate, S-ethyl hexahydro-1H-azepine-1-carbothioate]
- pest or weed control at 1400 g/ha ([5]; 1400 gai/ha): 55%
- pest or weed control at 2800 g/ha ([5]; 2800 gai/ha): 85%
